Experimental data: patent US6492495B1, “PTP-S31: a novel protein tyrosine phosphatase” (Max-Planck-Gesellschaft zur Forderung der Wissenschaften …, priority 1993, dated 2002)
Read-outs that look alike come from different tables or passages of the source.

How the values were obtained:
PTPβ = PTPβ (Homo sapiens, UniProt P23467); settings: Raytide substrate, cited from earlier work
[1] = target: T1, GST/PTP-S31 fusion protein (S31D) (Homo sapiens, UniProt Q9UMZ3); assay: PTP assay of GST/PTP-S31D fusion protein on glutathione-Sepharose beads, substrate pNP-P, effect of agents; format: biochemical; settings: 25 mM pNP-P
T1 construct: p16 encodes a fusion protein of glutathione-S-transferase and PTP-S31D (starting with the first methionine); made in house; host or cells: E. coli DH5α and SURE
T1 sequence (Q9UMZ3 with tags, fused parts or gaps): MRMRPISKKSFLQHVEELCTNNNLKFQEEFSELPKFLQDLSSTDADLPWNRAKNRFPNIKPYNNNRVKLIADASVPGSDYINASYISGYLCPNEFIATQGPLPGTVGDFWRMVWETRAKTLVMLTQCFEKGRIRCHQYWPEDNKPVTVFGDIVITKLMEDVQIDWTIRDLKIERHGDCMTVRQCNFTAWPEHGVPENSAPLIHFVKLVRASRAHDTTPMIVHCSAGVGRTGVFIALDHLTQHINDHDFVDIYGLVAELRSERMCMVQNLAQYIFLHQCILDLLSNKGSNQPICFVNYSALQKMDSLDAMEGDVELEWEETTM
Procedure: The activity of PTP-S31D towards the substrate p-nitrophenyl phosphate (pNP-P) was measured essentially as described by Tonks et al., J. Biol. Chem. 263:6731-6737 (1988)). Increasing amounts of the glutathione-Sepharose beads with GST/PTP-S31D, GST/PTP-S31C and GST, respectively, from above were incubated with 25 mM pNP-P at room temperature in a reaction mixture containing 50 mM 2-(N-morpholino) ethane sulfonic acid (MES) pH 5.5, 10 mM dithiothreitol, and 5 mM ethylenediamine tetraacetic acid (EDTA). The reaction was stopped by addition of equal volumes of 0.4 M NaOH. After centrifugation, the supernatants were transferred to microtiter plates and the absorbance at 405 nm was read with a Dynatech MR5000 reader.
The activity of the GST/PTP-S31D fusion protein towards pNP-P is measured as described in Section 10, above. The substances to be analyzed for their ability to stimulate or inhibit phosphatase activity are added to the GST/PTP-S31D fusion protein 5 minutes prior to the addition of pNP-P. A similar procedure is used for PTP-S31D expressed in 293 cells, where the PTP-S31D/293 cell lysate is used directly.
The indicated concentrations of the agents are the final concentrations in the reaction mixture after addition of the substrate, pNP-P. The phosphatase assay mixture contained 50 mM 2-(N-Morpholino)ethane sulfonic acid (MES) pH 5.5, 10 mM dithiothreitol, 25 mM pNP-P and 2 μl of the GST/PTP-S31-Sepharose suspension. When testing orthovanadate, poly(Glu/Tyr) 4:1 and poly-L-lysine, 5 mM EDTA was included in the assay mixture. The reaction was carried out at room temperature and stopped after 30 minutes by addition of equal volumes of 0.4M NaOH. After centrifugation, the supernatants were transferred to microtiter plates and the absorbance at 405 nm read with a Dynatech MR5000 plate reader. For comparison, Table I includes published data of the activity of PTPB and LAR using Raytide as a substrate (Itoh et al (J. Biol. Chem. 267: 12356-12363 (1992)).

LAR = settings: Raytide substrate, cited from earlier work
[2] = tested on: skeletal muscle or adipocytes; settings: whole cells such as skeletal muscle or adipocytes; cited from earlier work
[3] = agent 1 mM final, MES pH 5.5, 30 min room temperature
[4] = agent 10 mM final, MES pH 5.5, 30 min room temperature
[5] = agent 0.1 mM final, MES pH 5.5, 30 min room temperature
[6] = agent 1 μg/ml final, MES pH 5.5, 5 mM EDTA, 30 min room temperature
[7] = agent 10 μg/ml final, MES pH 5.5, 5 mM EDTA, 30 min room temperature
[8] = agent 100 μg/ml final, MES pH 5.5, 5 mM EDTA, 30 min room temperature

PTPβ, sequence (P23467 1643-1997 limits assumed): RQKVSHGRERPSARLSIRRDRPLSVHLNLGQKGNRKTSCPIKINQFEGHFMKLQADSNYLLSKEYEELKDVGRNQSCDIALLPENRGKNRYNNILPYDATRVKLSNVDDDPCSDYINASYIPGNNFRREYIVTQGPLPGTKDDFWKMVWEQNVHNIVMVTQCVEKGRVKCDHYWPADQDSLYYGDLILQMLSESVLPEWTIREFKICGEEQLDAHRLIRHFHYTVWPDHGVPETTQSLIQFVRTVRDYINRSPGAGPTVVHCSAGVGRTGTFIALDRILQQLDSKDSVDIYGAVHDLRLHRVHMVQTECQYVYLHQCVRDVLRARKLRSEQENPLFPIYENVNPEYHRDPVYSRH

**Q.** For `[Cl-].[Cl-].[Mg+2]` [MgCl2], which “PTP Activity (% of control) PTPβ” value (PTPβ; agent 1 mM) is on record?
**A.** 90 % of control

**Q.** What about the “PTP Activity (% of control) PTPβ” value (PTPβ; agent 10 mM) of the same compound?
**A.** 141 % of control

**Q.** And the “PTP Activity (% of control) S31D” value [1, 3]?
**A.** 123 % of control

**Q.** What about the “PTP Activity (% of control) S31D” value [1, 4] of the same compound?
**A.** 140 % of control

**Q.** And the “PTP Activity (% of control) LAR” value (LAR; agent 1 mM)?
**A.** 119 % of control

**Q.** What about the “PTP Activity (% of control) LAR” value (LAR; agent 10 mM) of the same compound?
**A.** 56 % of control

**Q.** What does the source list for `[Cl][Mn][Cl]` [MnCl2]?
**A.** PTP Activity (% of control) PTPβ (PTPβ; agent 1 mM): 85 % of control; PTP Activity (% of control) PTPβ (PTPβ; agent 10 mM): 64 % of control; PTP Activity (% of control) S31D [1, 3]: 110 % of control; PTP Activity (% of control) S31D [1, 4]: 140 % of control; PTP Activity (% of control) LAR (LAR; agent 1 mM): 72 % of control; PTP Activity (% of control) LAR (LAR; agent 10 mM): 30 % of control

**Q.** Which results are given for `[O]=[V]([O-])([O-])[O-]` [Orthovanadate, orthovanadate]?
**A.** PTP Activity (% of control) PTPβ (PTPβ; agent 0.1 mM): 33 % of control; PTP Activity (% of control) PTPβ (PTPβ; agent 1 mM): 6 % of control; PTP Activity (% of control) S31D [1, 5]: 64 % of control; PTP Activity (% of control) S31D [1, 3]: 23 % of control; PTP Activity (% of control) LAR (LAR; agent 0.1 mM): 59 % of control; PTP Activity (% of control) LAR (LAR; agent 1 mM): 25 % of control

**Q.** Which “PTP Activity (% of control) PTPβ” value (PTPβ; agent 0.1 mM) does the source give for `[Cl-].[Cl-].[Zn+2]` [ZnCl2] here?
**A.** 18 % of control

**Q.** What about the “PTP Activity (% of control) PTPβ” value (PTPβ; agent 1 mM) of the same compound?
**A.** 3 % of control

**Q.** And the “PTP Activity (% of control) PTPβ” value (PTPβ; agent 10 mM)?
**A.** 0 % of control

**Q.** And the “PTP Activity (% of control) S31D” value [1, 5]?
**A.** 68 % of control

**Q.** And the “PTP Activity (% of control) S31D” value [1, 3]?
**A.** 13 % of control

**Q.** And the “PTP Activity (% of control) S31D” value [1, 4]?
**A.** 9 % of control

**Q.** What about the “PTP Activity (% of control) LAR” value (LAR; agent 0.1 mM) of the same compound?
**A.** 90 % of control

**Q.** And the “PTP Activity (% of control) LAR” value (LAR; agent 1 mM)?
**A.** 120 % of control

**Q.** What about the “PTP Activity (% of control) LAR” value (LAR; agent 10 mM) of the same compound?
**A.** 6 % of control

**Q.** For pervanadate, which “insulin response of whole cells” value [2] is on record?
**A.** almost full insulin response

**Q.** What does the source list for poly(Glu/Tyr) 4:1 [Poly (Glu/Tyr)]?
**A.** PTP Activity (% of control) PTPβ (PTPβ; agent 1 μg/ml): 97 % of control; PTP Activity (% of control) PTPβ (PTPβ; agent 10 μg/ml): 85 % of control; PTP Activity (% of control) PTPβ (PTPβ; agent 100 μg/ml): 61 % of control; PTP Activity (% of control) S31D [1, 6]: 84 % of control; PTP Activity (% of control) S31D [1, 7]: 85 % of control; PTP Activity (% of control) S31D [1, 8]: 77 % of control; PTP Activity (% of control) LAR (LAR; agent 1 μg/ml): 103 % of control; PTP Activity (% of control) LAR (LAR; agent 10 μg/ml): 97 % of control; PTP Activity (% of control) LAR (LAR; agent 100 μg/ml): 96 % of control

**Q.** For poly-L-lysine, which “PTP Activity (% of control) PTPβ” value (PTPβ; agent 1 μg/ml) is on record?
**A.** 239 % of control

**Q.** And the “PTP Activity (% of control) PTPβ” value (PTPβ; agent 10 μg/ml)?
**A.** 653 % of control

**Q.** And the “PTP Activity (% of control) PTPβ” value (PTPβ; agent 100 μg/ml)?
**A.** 125 % of control

**Q.** And the “PTP Activity (% of control) S31D” value [1, 6]?
**A.** 156 % of control

**Q.** And the “PTP Activity (% of control) S31D” value [1, 7]?
**A.** 172 % of control

**Q.** And the “PTP Activity (% of control) S31D” value [1, 8]?
**A.** 192 % of control

**Q.** And the “PTP Activity (% of control) LAR” value (LAR; agent 1 μg/ml)?
**A.** 123 % of control

**Q.** And the “PTP Activity (% of control) LAR” value (LAR; agent 10 μg/ml)?
**A.** 230 % of control

**Q.** And the “PTP Activity (% of control) LAR” value (LAR; agent 100 μg/ml)?
**A.** 247 % of control
